The experiment concerns the target T1, human Arginine Vasopressin Receptor 1b (AVPR1b) (Homo sapiens, UniProt P47901).
T1 construct: expressed in transfected cells; host or cells: CHO (CHO-AVPR1b, kept under G418 selection)
T1 sequence (P47901 1-424): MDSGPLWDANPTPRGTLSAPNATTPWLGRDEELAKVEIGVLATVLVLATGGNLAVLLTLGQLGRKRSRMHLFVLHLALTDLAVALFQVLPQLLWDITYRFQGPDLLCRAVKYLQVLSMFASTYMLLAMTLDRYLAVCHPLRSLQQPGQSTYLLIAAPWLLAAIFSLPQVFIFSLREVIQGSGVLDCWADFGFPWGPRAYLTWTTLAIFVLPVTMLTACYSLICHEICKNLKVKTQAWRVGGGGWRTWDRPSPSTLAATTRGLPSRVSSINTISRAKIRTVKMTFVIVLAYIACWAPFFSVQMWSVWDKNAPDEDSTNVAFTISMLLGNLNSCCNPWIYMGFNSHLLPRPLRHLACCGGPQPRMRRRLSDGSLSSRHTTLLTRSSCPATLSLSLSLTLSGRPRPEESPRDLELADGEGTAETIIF
Briefly: Vasopressin V1b receptor antagonist assay (FLIPR calcium, CHO-AVPR1b cells). It counts as cell-based. Put shortly:
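CHO cells expressing human AVPR1b, loaded with Calcium-6 dye, were given compound (10-point, 1:3) for 15 min at 37 °C. Then AVP was added at its daily-determined EC80 in HBSS/HEPES. FLIPR fluorescence read for 3 min; antagonism seen as reduced AVP calcium response.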

IC50 data for 44 compounds are collected here from patent US12152038B2, “Vasopressin receptor antagonists and products and methods related thereto” (Neumora Therapeutics, Inc., priority 2017, dated 2024).

What is called IC50 is the concentration needed to halve the response being measured. For `Cc1nccc(N2CC3(CN(C(=O)N4c5ccc(Cl)cc5OCC4C)C3)C2)n1` (centres unmarked) [21-8], the IC50 was at least 1000 nM.

As for `CC1COc2cc(Cl)ccc2N1C(=O)N1CC2(C1)CN(c1ncccc1F)C2` (single isomer, unassigned) [1-57-A], the half-maximal inhibitory concentration (IC50) is at least 1000 nM.

Consider `CC1COc2cc(Cl)ccc2N1C(=O)N1CC2(C1)CN(c1ccc(F)cn1)C2` (single isomer, unassigned) [1-73-B], for which the IC50 was at least 1000 nM.

As to `Cc1cnnc(N2CC3(CN(C(=O)N4c5ccc(Cl)cc5OCC4C)C3)C2)c1` (centres unmarked) [21-4], the 50% inhibitory concentration (IC50) was at least 1000 nM.

For the compound `O=C(N1CC2(C1)CN(c1ccc(F)c(F)n1)C2)N1CCOc2cc(Cl)ccc21` [1-49], the IC50 is at least 1000 nM.

As for `Cc1cncc(N2CC3(CN(C(=O)N4CCOc5cc(Cl)ccc54)C3)C2)n1` [1-22], the half-maximal inhibitory concentration (IC50) was at least 1000 nM.

Take `COc1nccnc1N1CC2(CN(C(=O)N3CCOc4cc(Cl)ccc43)C2)C1` [1-43]: the IC50 is at least 1000 nM.

With `Cc1cnc(N2CC3(CN(C(=O)N4CCOc5cc(Cl)ccc54)C3)C2)cn1` [1-20], the IC50 is at least 1000 nM.

For `CC1COc2cc(Cl)ccc2N1C(=O)N1CC2(C1)CN(c1nn(C)c3ncccc13)C2` (single isomer, unassigned) [20-15-B], the half-inhibitory concentration (IC50) is at least 1000 nM.

For `CC1COc2cc(Cl)ccc2N1C(=O)N1CC2(C1)CN(c1ncncc1F)C2` (centres unmarked) [21-5], the half-inhibitory concentration (IC50) was at least 1000 nM.

Take `O=C(N1CC2(C1)CN(c1ccc(F)cn1)C2)N1CCOc2cc(F)ccc21` [1-64]: the half-maximal inhibitory concentration (IC50) was at least 1000 nM.

Regarding `COc1ccc(N2CC3(CN(C(=O)N4CCOc5cc(Cl)ccc54)C3)C2)nc1` [1-68], the 50% inhibitory concentration (IC50) was at least 1000 nM.

For `O=C(N1CC2(C1)CN(c1cc(F)ccn1)C2)N1CCOc2cc(Cl)ccc21` [1-70], the IC50 is at least 1000 nM.

`N#Cc1ccnc(N2CC3(CN(C(=O)N4CCOc5cc(Cl)ccc54)C3)C2)c1` [1-53]: the IC50 is at least 1000 nM.

For `CC1COc2cc(Cl)ccc2N1C(=O)N1CC2(C1)CN(c1ccccn1)C2` (centres unmarked) [1-60], the IC50 is at least 1000 nM.

In the case of `CC1COc2cc(Cl)ccc2N1C(=O)N1CC2(C1)CN(c1noc3ccccc13)C2` (centres unmarked) [21-1, (6-(benzo[d]isoxazol-3-yl)-2,6-diazaspiro[3.3]heptan-2-yl)(7-chloro-3-methyl-2,3-dihydro-4H-benzo[b][1,4]oxazin-4-yl)methanone], the IC50 is at least 1000 nM.

Regarding `CC1COc2cc(F)ccc2N1C(=O)N1CC2(C1)CN(c1ncccc1F)C2` (centres unmarked) [1-67], the IC50 is at least 1000 nM.

In the case of `CC1COc2cc(Cl)ccc2N1C(=O)N1CC2(C1)CN(c1ncc(F)cn1)C2` (single isomer, unassigned) [18-2-B], the IC50 was at least 1000 nM.

For the compound `CC1COc2cc(F)ccc2N1C(=O)N1CC2(C1)CN(c1cnccn1)C2` (single isomer, unassigned) [1-65-B], the IC50 was at least 1000 nM.

Take `CCC1COc2cc(Cl)ccc2N1C(=O)N1CC2(C1)CN(c1ccc(F)cn1)C2` (single isomer, unassigned) [1-55-B]: the IC50 was at least 1000 nM.

`Cc1cccc(N2CC3(CN(C(=O)N4CCOc5cc(Cl)ccc54)C3)C2)n1` [1-3]: the IC50 is at least 1000 nM.

`COc1ccc2c(c1)OCC(C)N2C(=O)N1CC2(C1)CN(c1ccc(F)cn1)C2` (single isomer, unassigned) [1-59-B]: the IC50 was at least 1000 nM.

Regarding `CC1COc2cc(Cl)ccc2N1C(=O)N1CC2(C1)CN(c1nccc(C(F)(F)F)n1)C2` (centres unmarked) [21-10], the IC50 is at least 1000 nM.

On to `Cc1cncc(N2CC3(CN(C(=O)N4c5ccc(Cl)cc5OCC4C)C3)C2)n1` (centres unmarked) [21-3], for which the IC50 was at least 1000 nM.

As to `CC1COc2cc(Cl)ccc2N1C(=O)N1CC2(C1)CN(c1ccncn1)C2` (centres unmarked) [21-6], the IC50 is at least 1000 nM.

Consider `CCc1cnc(N2CC3(CN(C(=O)N4c5ccc(Cl)cc5OCC4C)C3)C2)nc1` (centres unmarked) [21-9], for which the concentration for half-maximal inhibition (IC50) is at least 1000 nM.

In the case of `O=C(N1CC2(C1)CN(c1cccnc1)C2)N1CCOc2cc(Cl)ccc21` [1-72], the IC50 is at least 1000 nM.

Regarding `CC1COc2cc(Cl)ccc2N1C(=O)N1CC2(C1)CN(c1cnccn1)C2` (single isomer, unassigned) [1-58-B], the IC50 was at least 1000 nM.

As for `Cc1cnc(N2CC3(CN(C(=O)N4c5ccc(Cl)cc5OCC4C)C3)C2)nc1` (single isomer, unassigned) [20-13-B], the IC50 was at least 1000 nM.

For the compound `CC1COc2cc(Cl)ccc2N1C(=O)N1CC2(C1)CN(c1cc(=O)n(C)cn1)C2` (single isomer, unassigned) [20-14-B], the concentration for half-maximal inhibition (IC50) is at least 1000 nM.

In the case of `CC1COc2cc(Cl)ccc2N1C(=O)N1CC2(C1)CN(c1ccccn1)C2` (single isomer, unassigned) [1-60-B], the IC50 was at least 1000 nM.

For the compound `O=C(N1CC2(C1)CN(c1cccnn1)C2)N1CCOc2cc(Cl)ccc21` [1-71], the IC50 is at least 1000 nM.

With `CC1COc2cc(Cl)ccc2N1C(=O)N1CC2(C1)CN(c1ccc(F)cn1)C2` (single isomer, unassigned) [1-73-A], the IC50 is at least 1000 nM.

Take `O=C(N1CC2(C1)CN(c1cnc(F)cn1)C2)N1CCOc2cc(Cl)ccc21` [1-18]: the half-maximal inhibitory concentration (IC50) was at least 1000 nM.

Take `CC1COc2cc(Cl)ccc2N1C(=O)N1CC2(C1)CN(c1ncccc1C#N)C2` (centres unmarked) [21-2]: the IC50 was at least 1000 nM.

Take `Cc1nc(N2CC3(CN(C(=O)N4CCOc5cc(Cl)ccc54)C3)C2)ccc1F` [1-30]: the half-maximal inhibitory concentration (IC50) is at least 1000 nM.

Take `O=C(N1CC2(C1)CN(c1ccc(F)cn1)C2)N1CCC(O)c2cc(Cl)ccc21` (single isomer, unassigned) [13-1-B]: the IC50 is at least 1000 nM.

As for `O=C(N1CC2(C1)CN(c1cc(F)cc(F)n1)C2)N1CCOc2cc(Cl)ccc21` [1-51], the IC50 is at least 1000 nM.

With `N#Cc1cccc(N2CC3(CN(C(=O)N4CCOc5cc(Cl)ccc54)C3)C2)n1` [1-39], the half-inhibitory concentration (IC50) is at least 1000 nM.

Take `CC1COc2cc(F)ccc2N1C(=O)N1CC2(C1)CN(c1ncccc1F)C2` (single isomer, unassigned) [1-67-A]: the half-inhibitory concentration (IC50) is at least 1000 nM.

For the compound `Cc1cc(F)nc(N2CC3(CN(C(=O)N4CCOc5cc(Cl)ccc54)C3)C2)c1` [1-45], the IC50 is at least 1000 nM.

Take `O=C(N1CC2(C1)CN(c1cccc(F)n1)C2)N1CCOc2cc(Cl)ccc21` [1-69]: the IC50 is at least 1000 nM.

With `CC1COc2cc(F)ccc2N1C(=O)N1CC2(C1)CN(c1ccccn1)C2` (single isomer, unassigned) [1-66-B], the IC50 is at least 1000 nM.

Take `Cc1cc(N2CC3(CN(C(=O)N4c5ccc(Cl)cc5OCC4C)C3)C2)ncn1` (centres unmarked) [21-11]: the half-maximal inhibitory concentration (IC50) is at least 1000 nM.
